Measurements from ChEMBL document CHEMBL3507680, “University of Dundee, Gates Library screen for HepG2 cell viability”.

Experiment: Human HepG2 cell viability assay in 384 well format
Type: toxicity, cell-based
Design: dose 125 nL, time 70.5 hour; cytotoxicity at 70.5 h: concentration not given beside the values
Details: HepG2 cells, read-out: Inhibition

| Structure (SMILES) | cytotoxicity at 70.5 h [%] |
| --- | --- |
| Cc1nc(NS(=O)(=O)c2cc(Br)ccc2C)no1 | -11.8 |
| Cc1nc(NS(=O)(=O)c2cc(C)c(Br)cc2C)no1 | -14.1 |
| Cc1nc(CC(=O)N2c3ccccc3OCC2C)cs1 (stereo not drawn) | -9.24 |
| COc1ccc(CN(C(=O)C2CCCOC2)c2ccncc2)cc1 (stereo not drawn) | -3.58 |
| Cc1noc(C)c1CN(C)CCc1nc(-c2cccc(Cl)c2)no1 | -10.4 |
| COC(=O)NCC(=O)N(C)Cc1csc(C)n1 | -4.39 |
| CC(C)c1ccc2c(c1)CCCN2C(=O)CN(C)S(C)(=O)=O | -94.4 |
| O=C(CNc1cc(-n2cnnn2)ccc1F)NCc1ccccc1 | -118 |
| COCCc1nc(-c2cnn3c(C)cc(C)nc23)no1 | -107 |
| O=C(O)c1cc(S(=O)(=O)Nc2cccc3c2OCCO3)ccc1F | -18.2 |
| NC(=O)C1CN(c2ccc3cc(Br)ccc3n2)CCO1 (stereo not drawn) | -109 |
| Cc1ccc(C(=O)N2CCOC3(CCCC3)C2)c(=O)[nH]1 | -41.7 |
| N#Cc1cccc(Cl)c1NC1CCN(CC(N)=O)CC1 | -106 |
| CNC(=O)c1ccc(CNc2ccncc2Cl)cc1 | -98.3 |
| CN(Cc1cnn(C)c1)C(=O)CCC(=O)c1ccc2c(c1)OCCO2 | -82.6 |
| CCn1c(C)cc(C(=O)N2CCC(Nc3ccc(C)nn3)CC2)c1C | -91.3 |
| CCOc1cc(Cl)ccc1CNC(=O)N(C)CC(C)(C)O | -78.1 |
| CNS(=O)(=O)c1cccc(CNc2ccc(C#N)cn2)c1 | -7.11 |
| COc1cc(CNC(=O)Nc2nnc(C3CC3)s2)ccc1O | -8.51 |
| COc1ncccc1CNC(=O)c1csc(Br)c1 | -8.18 |
| N#CCCN(Cc1ccco1)C(=O)CN1CCCC1c1cccs1 (stereo not drawn) | 1.44 |
| CN(Cc1ccco1)C(=O)NC(Cn1ccnc1)C(C)(C)C (stereo not drawn) | -5.15 |
| COc1cc(CNC(=O)c2csc(Br)c2)ccn1 | -12.9 |
| CCc1nnsc1C(=O)NCc1c(C)nn(CCOC)c1C | -7.41 |

| Structure (SMILES) | cytotoxicity at 70.5 h [%] |
| --- | --- |
| CNS(=O)(=O)Cc1cccc(CNc2ccc(C#N)cn2)c1 | -10.5 |
| O=C1CCN(C(=O)C2(c3ccc(F)cc3)CCCCC2)CCN1 | -8.46 |
| O=C1CCN(C(=O)C2(c3ccc(F)cc3)CCCC2)CCN1 | -5.37 |
| Cc1nnc(C2Cc3ccccc3CN2Cc2nc(C3CC3)no2)o1 (stereo not drawn) | -5.34 |
| O=C(NCCCN1CCOCC1)C(OC1CCCC1)c1ccccc1 (stereo not drawn) | -1.75 |
| CCc1nnc2n1CCN(C(=O)c1cnc3c(cnn3C(C)C)c1)C2 | -8.43 |
| CCCn1[nH]cc/c1=N\C(=O)CN1CCCC1Cn1nc(C)nc1C (stereo not drawn) | -1.59 |
| CCNC(=O)CNS(=O)(=O)Cc1cc(-c2ccccc2)no1 | 2.55 |
| COc1ccc(CNC(=O)N2CCCN(CC3CCCCC3)CC2)cn1 | -5.17 |
| COCCOc1ccc(NC(=O)N(C(C)C)C2CC2)cn1 | -3.25 |
| CN(Cc1cc(Br)cn1C)C(=O)c1cc(Cl)ccn1 | 30.9 |
| CC(C(=O)NS(=O)(=O)Cc1cc(-c2ccccc2)no1)C1CC1 (stereo not drawn) | -1.89 |
| CCNC(=O)CCC(=O)NC(C)Cc1ccccc1Br (stereo not drawn) | 4.19 |
| Cc1noc(NCc2ccc(F)cc2)n1 | -1.48 |
| CN1CCN(CCNC(=O)C(OC2CCCC2)c2ccccc2)CC1 (stereo not drawn) | 5.3 |
| COCCOc1ccc(NC(=O)N(CCCO)CC(C)(C)C)cn1 | 21.2 |
| CCCn1[nH]cc/c1=N\C(=O)CN1CCCC1Cn1cccn1 (stereo not drawn) | -6.25 |
| Cc1nc2n(n1)CC(NCc1nnc(C(C)(C)C)o1)CC2 (stereo not drawn) | -6.83 |
| CC(Cn1ccnc1)NC(=O)N(C)Cc1ccco1 (stereo not drawn) | -2.84 |
| CCc1nnc(C2Cc3ccccc3CN2Cc2cc(C)no2)o1 (stereo not drawn) | -4.33 |
| CCN(CC)c1ccc(CNC(=O)c2cnccn2)cn1 | 18 |
| CCN(CC)c1ccc(CNC(=O)c2ccc(=O)[nH]n2)cn1 | -13.1 |
| O=C(c1cc(C2CC2)[nH]n1)N1CCN(c2nccs2)CC1 | -11.6 |
| O=C(c1ccoc1)N1CCC(NCc2cccnc2)CC1 | 4.06 |

| Structure (SMILES) | cytotoxicity at 70.5 h [%] |
| --- | --- |
| CCS(=O)(=O)N1CCC(Nc2ccc(C#N)cc2F)CC1 | -10.9 |
| CC(NC(=O)CN1C=Nc2ccccc2S1(=O)=O)c1ccccc1 (stereo not drawn) | -9.29 |
| Cc1ccc(CNC(=O)N2CCN(S(C)(=O)=O)CC2)n1C | -6.21 |
| Cc1nc(S(=O)(=O)NCCC(=O)NCc2ccsc2)cn1C | -6.68 |
| Fc1ccccc1CN1CCC(c2n[nH]c(C3CC3)n2)CC1 | -5.65 |
| c1cc(CCN2CCC(c3n[nH]c(C4CC4)n3)CC2)ccn1 | 11.7 |
| Cc1ccc(CNC(=O)C2CCN(C(=O)C(C)C)CC2)n1C | -9.28 |
| CCNc1cc2c(nn1)CCN(C(=O)Cc1ccc3c(c1)CCO3)C2 | -7.37 |
| Cc1nc(-c2cnn(C)c2)sc1C(=O)NCc1ccc(C)n1C | -2.82 |
| O=C(Nc1ccccc1F)N(CCO)CCOCC(F)(F)F | -4.12 |
| CCOC(=O)c1ccc(CNC(=O)c2ccon2)o1 | 14.2 |
| O=C(CCn1cccn1)NS(=O)(=O)N1CCCc2ccccc21 | -8.67 |
| CCOC(=O)c1ccc(CNC(=O)c2ccc(Cl)cn2)o1 | -6.63 |
| Cn1cc(C2(C)CN(c3ncccc3C#N)CCO2)cn1 (stereo not drawn) | 3.03 |
| Cc1c(NC(C)C(C)C)cccc1C(=O)NCc1ccnn1C (stereo not drawn) | 4.31 |
| Cn1cc(C(=O)N2CCCC2CCc2ccccc2)cn1 (stereo not drawn) | -9.35 |
| Cc1nc(-c2cnn(C)c2)sc1C(=O)NCc1cccc(CN(C)C)c1 | -6.53 |
| CCc1cc(NC(=O)N2CCC(Oc3cccnc3)C2)n(C)n1 (stereo not drawn) | -6.65 |
| Cc1nnc(NCC(c2ccco2)N2CCCC2)c(C#N)c1C (stereo not drawn) | 3.51 |
| O=C(CS(=O)(=O)c1ccccn1)NC1CCCc2ccccc21 (stereo not drawn) | 1 |
| O=C(NCCc1cccs1)NC1CCN(c2ncccn2)CC1 | -6.98 |
| CS(=O)(=O)NCC1CCCN(C(=O)Nc2ccccc2F)C1 (stereo not drawn) | 1.05 |
| CS(=O)(=O)NCC1CCCN(C(=O)Nc2cccc3ccccc23)C1 (stereo not drawn) | -3.21 |
| O=C(c1cccc(-n2cnnn2)c1)N1CCC2(CC1)OCCO2 | -7.02 |

| Structure (SMILES) | cytotoxicity at 70.5 h [%] |
| --- | --- |
| Cc1nc(CNC(=O)NC2CCN(c3ncccn3)CC2)cs1 | -6.89 |
| CCS(=O)(=O)CC(=O)NC(c1ccccc1)C1CCCC1 (stereo not drawn) | 0.476 |
| CCCN(CC(F)F)C(=O)CCc1c(C)nc2cc(O)nn2c1C | 23.2 |
| Cc1ccc(-n2cc(C(=O)N3CCn4c(C)nnc4C3)nn2)cc1 | 26.8 |
| Cc1cc(C(=O)N2CCC(Nc3cccnc3)CC2)c(C)s1 | 2.17 |
| COc1cc(C(=O)N2CCC(Nc3cccnc3)CC2)ccc1C | 6.09 |
| Cc1nn(C)c(C)c1CNCc1cccnc1N1CCOCC1 | -7.44 |
| O=C(Cc1ccc2c(c1)CCO2)N1CCCC1Cn1cccn1 (stereo not drawn) | -4.67 |
| O=C(CS(=O)(=O)C1CCCC1)NC(c1ccc(F)cc1)C1CC1 (stereo not drawn) | 1.6 |
| N#Cc1ncn(CCC(=O)Nc2ccccc2F)n1 | -0.493 |
| Cc1ccc(C(=O)N2CCN(CCCSCC#N)CC2)cc1F | -7.64 |
| COCC(=O)N(C)Cc1ccc(F)c(F)c1 | 28.3 |
| Cc1ccc(CC(=O)N2CCCCC2Cn2cccn2)cn1 (stereo not drawn) | -0.224 |
| Cc1cnn(CC2CCCN2C(=O)Cc2ccc3c(c2)CCO3)c1 (stereo not drawn) | -7.32 |
| Cc1nc(C)c(C(=O)Nc2cccc(CN3CCC(CO)CC3)c2)o1 | 0.852 |
| CN(CCN1CCOCC1)C(=O)CCc1ccc(C(F)(F)F)cc1 | 10.6 |
| NS(=O)(=O)c1ccc(CNC(=O)c2ccc(Cl)cc2F)cc1 | 5.61 |
| O=C(NCc1ccncc1)c1ccc(Cl)cc1F | 4.94 |
| Cc1ccc(Cl)cc1NC(=O)C1CC(=O)N(Cc2ccccn2)C1 (stereo not drawn) | 8.15 |
| O=C(Nc1cccc(C(F)(F)F)c1)C1CC(=O)N(Cc2ccccn2)C1 (stereo not drawn) | 34.8 |
| O=C(NCc1ccccc1F)NC1CCCN(c2ncccn2)C1 (stereo not drawn) | -4.69 |
| CN(C)C(=O)Cc1ccc(NC(=O)NC2CC2)cc1 | -3.59 |
| Cc1nn(CC(=O)N2CCN(c3cnccn3)CC2)c(C)c1Cl | -9.18 |
| Cc1nn(CC(=O)N2CCN(c3ncccn3)CC2)c(C)c1Cl | 21.2 |

| Structure (SMILES) | cytotoxicity at 70.5 h [%] |
| --- | --- |
| COCCn1ccc(NC(=O)Nc2cccc(C#N)c2)n1 | -9.39 |
| CC(C)COC1CCN(C(=O)c2cc3ccccc3c(=O)[nH]2)CC1 | -4.65 |
| COCCn1ccc2cc(NC(=O)COC)ccc21 | -3.46 |
| Cc1nc(CNC(=O)NCc2ccc(OCC3CC3)nc2)cs1 | -5.23 |
| COCCn1ccc(NC(=O)Nc2ccc(C)cc2)n1 | -5.81 |
| COc1cccc(S(=O)(=O)NC(=O)c2c(C)noc2C(C)C)c1 | -3.75 |
| CCc1nccn1C1CCCN(C(=O)c2cc[nH]n2)C1 (stereo not drawn) | -1.71 |
| CCc1nccn1C1CCCN(C(=O)c2cnc[nH]2)C1 (stereo not drawn) | -3.68 |
| CCc1nccn1C1CCCN(C(=O)c2cc(C3CC3)on2)C1 (stereo not drawn) | -6.97 |
| CCc1csc(C2CCCN(C(=O)c3ccc(OC)nc3)C2)n1 (stereo not drawn) | -1.94 |
| CCc1csc(C2CCCN(C(=O)CCn3cc(C)cn3)C2)n1 (stereo not drawn) | 17.5 |
| CC(NC(=O)C(C)(C)C#N)c1ccc(OCC2CC2)c(F)c1 (stereo not drawn) | -6.52 |
| COc1ccc(S(=O)(=O)NC(=O)c2c(C)noc2C(C)C)cc1OC | -2.97 |
| CC(NC(=O)Cc1ccon1)c1ccc(OCC2CC2)c(F)c1 (stereo not drawn) | -7.52 |
| CC(NC(=O)c1csnn1)c1ccc(OCC2CC2)c(F)c1 (stereo not drawn) | 14.5 |
| Cc1cc(CC(=O)NC(C)c2ccc(OCC3CC3)c(F)c2)n[nH]1 (stereo not drawn) | -7.64 |
| CC(NC(=O)Cn1ccnc1)c1ccc(OCC2CC2)c(F)c1 (stereo not drawn) | 0.552 |
| CCc1nccn1C1CCCN(C(=O)c2cncn2-c2ccccc2)C1 (stereo not drawn) | -6.28 |
| CCc1csc(C2CCCN(C(=O)c3ccc4c(c3)OCO4)C2)n1 (stereo not drawn) | 13.2 |
| CCc1nccn1C1CCCN(C(=O)c2ccnc(C)n2)C1 (stereo not drawn) | -7.48 |
| CC(C(=O)N(C)C)N1CCCN(C(=O)Oc2ccccc2)CC1 (stereo not drawn) | -9.71 |
| COCc1csc(NC(=O)N2CCC(Cc3cnn(C)c3)C2)n1 (stereo not drawn) | -4.37 |
